Data as given in ChEMBL document CHEMBL5053507, “Oxadiazepinone HBV capsid assembly modulators” (Bioorg Med Chem Lett, 2021).
In brackets after ≈: the same amount, converted by molar mass.

Legend:
[1] = Metabolic stability in human liver microsomes assessed as intrinsic clearance; assay type: ADME, Microsome; conditions: read-out: CLH
[2] = Half life in Sprague-Dawley rat at 5 mg/kg, po or 1.25 mg/kg, iv; assay type: ADME, organism-based; conditions: in vivo
[3] = Clearance in Mongrel dog at 2.5 mg/kg, po or 1 mg/kg, iv relative to liver blood flow; assay type: ADME, organism-based, Canis lupus familiaris; conditions: in vivo
[4] = Cmax in Sprague-Dawley rat at 5 mg/kg, po; assay type: ADME, organism-based; parameters: dose 5 mg/kg, route po; conditions: in vivo
[5] = Oral bioavailability in Mongrel dog at 2.5 mg/kg; assay type: ADME, organism-based, Canis lupus familiaris; conditions: in vivo
[6] = Half life in Mongrel dog at 2.5 mg/kg, po or 1 mg/kg, iv; assay type: ADME, organism-based, Canis lupus familiaris; conditions: in vivo
[7] = Cmax in Mongrel dog at 2.5 mg/kg, po; assay type: ADME, organism-based, Canis lupus familiaris; parameters: dose 2.5 mg/kg, route po; conditions: in vivo
[8] = AUC (0 to infinity) in Mongrel dog at 2.5 mg/kg, po; assay type: ADME, organism-based, Canis lupus familiaris; parameters: time infinity, dose 2.5 mg/kg, route po; conditions: in vivo
[9] = Tmax in Sprague-Dawley rat at 5 mg/kg, po; assay type: ADME, organism-based; conditions: in vivo
[10] = Volume of distribution at steady state in Mongrel dog at 2.5 mg/kg, po or 1 mg/kg, iv; assay type: ADME, organism-based, Canis lupus familiaris; conditions: in vivo
[11] = Oral bioavailability in Sprague-Dawley rat at 5 mg/kg; assay type: ADME, organism-based; conditions: in vivo
[12] = AUC (0 to infinity) in Sprague-Dawley rat at 5 mg/kg, po; assay type: ADME, organism-based; parameters: time infinity, dose 5 mg/kg, route po; conditions: in vivo
[13] = Tmax in Mongrel dog at 2.5 mg/kg, po; assay type: ADME, organism-based, Canis lupus familiaris; conditions: in vivo
[14] = Volume of distribution at steady state in Sprague-Dawley rat at 5 mg/kg, po or 1.25 mg/kg, iv; assay type: ADME, organism-based; conditions: in vivo
[15] = Ratio of AUC (0 to 24 hrs) in liver to plasma in Sprague-Dawley rat at 5 mg/kg, po or 1.25 mg/kg, iv; assay type: ADME, organism-based; conditions: read-out: Ratio AUC
[16] = Thermodynamic solubility of the compound at pH 7; assay type: physicochemical; conditions: buffer, read-out: Therm_solubility
[17] = Clearance in Sprague-Dawley rat at 5 mg/kg, po or 1.25 mg/kg, iv relative to liver blood flow; assay type: ADME, organism-based; conditions: in vivo
[18] = Solubility of the compound; assay type: physicochemical
[19] = Cmax in CD1 mouse at 10 mg/kg, po; assay type: ADME, organism-based; parameters: dose 10 mg/kg, route po; conditions: in vivo
Cytochrome P450 [20] = test: Induction of CYP (unknown origin); assay type: ADME, protein assay; conditions: human
[21] = target: Core antigen (Hepatitis B virus) (UniProt Q03732); test: Modulation of capsid assembly in HBV infected in human HepG2.2.15 cells assessed as fold shift in inhibition of viral DNA replication in presence of 40% normal human serum incubated for 3 days followed by replacement with fresh medium containing compound and measured after 3 days by QuantiGene assay; assay type: cell-based; conditions: time 6.0 day
Core antigen (Hepatitis B virus), sequence (Q03732 as listed by the source): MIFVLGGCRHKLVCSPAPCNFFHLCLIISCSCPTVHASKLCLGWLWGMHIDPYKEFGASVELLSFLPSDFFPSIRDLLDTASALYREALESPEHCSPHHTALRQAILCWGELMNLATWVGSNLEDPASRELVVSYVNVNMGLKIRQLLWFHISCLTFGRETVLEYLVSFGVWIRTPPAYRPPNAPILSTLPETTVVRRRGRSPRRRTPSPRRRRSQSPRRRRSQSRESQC

[22] = Volume of distribution at steady state in CD1 mouse at 10 mg/kg, po or 2.5 mg/kg, iv; assay type: ADME, organism-based; conditions: in vivo
Cytochrome P450 [23] = test: Inhibition of CYP (unknown origin); assay type: ADME, protein assay; conditions: human
[24] = Oral bioavailability in CD1 mouse at 10 mg/kg; assay type: ADME, organism-based; conditions: in vivo
[25] = Half life in CD1 mouse at 10 mg/kg, po or 2.5 mg/kg, iv; assay type: ADME, organism-based; conditions: in vivo
[26] = Tmax in CD1 mouse at 10 mg/kg, po; assay type: ADME, organism-based; conditions: in vivo
[27] = Clearance in CD1 mouse at 10 mg/kg, po or 2.5 mg/kg, iv relative to liver blood flow; assay type: ADME, organism-based; conditions: in vivo
[28] = AUC (0 to infinity) in CD1 mouse at 10 mg/kg, po; assay type: ADME, organism-based; parameters: time infinity, dose 10 mg/kg, route po; conditions: in vivo
[29] = Half life in CD1 mouse at 2 mg/kg, iv; assay type: ADME, organism-based; conditions: in vivo
[30] = Volume of distribution at steady state in Sprague-Dawley rat at 0.6 mg/kg, iv; assay type: ADME, organism-based; conditions: in vivo, read-out: Vdss
[31] = Half life in Sprague-Dawley rat at 0.6 mg/kg, iv; assay type: ADME, organism-based; conditions: in vivo
[32] = Clearance in CD1 mouse at 2 mg/kg, iv; assay type: ADME, organism-based; conditions: in vivo
[33] = Clearance in Sprague-Dawley rat at 0.6 mg/kg, iv; assay type: ADME, organism-based; conditions: in vivo
[34] = Volume of distribution at steady state in CD1 mouse at 2 mg/kg, iv; assay type: ADME, organism-based; conditions: in vivo, read-out: Vdss

SMILES: CN1O[C@@H](CO)Cn2nc3c(c2C1=O)CN(C(=O)Nc1ccc(F)c(Cl)c1)CC3
- CLint scaled [1]: 7 mL/min/kg

SMILES: CCOC(=O)c1n[nH]c2c1CN(C(=O)Nc1cccc(Cl)c1)CC2
- CLint scaled [1]: 171 mL/min/kg

SMILES: C[C@@H]1Cc2nn3c(c2CN1C(=O)Nc1ccc(F)c(C#N)c1)C(=O)N(C)O[C@@H](COCC(F)F)C3
- CLint scaled [1]: < 5 mL/min/kg
- half-life ([2]; Sprague-Dawley): 1.8 h
- CLH [3]: 9%
- Cmax ([4]; Sprague-Dawley, read-out: Cmax): 533 ng/mL
- bioavailability [5]: 70%
- half-life [6]: 5.6 h
- Cmax [7]: 1170 ng/mL
- AUC(0-inf) [8]: 10600 ng·h/mL
- Tmax ([9]; Sprague-Dawley, read-out: Tmax): 1 h
- Vdss [10]: 1.2 L/kg
- bioavailability [11]: 71%
- AUC(0-inf) [12]: 3840 ng·h/mL
- Tmax [13]: 0.75 h
- Vdss [14]: 2 L/kg
- Kp [15]: 3.8
- solubility thermodynamic [16]: 22 µM (≈ 10.8 µg/mL)
- CLH [17]: 20%

SMILES: O=C(Nc1cccc(Cl)c1)N1CCc2[nH]nc(-c3ccccc3)c2C1
- CLint scaled [1]: 192 mL/min/kg

SMILES: CCON(C)C(=O)c1n[nH]c2c1CN(C(=O)Nc1cccc(Cl)c1)CC2
- CLint scaled [1]: 55 mL/min/kg

SMILES: C[C@@H]1Cc2nn3c(c2CN1C(=O)Nc1ccc(F)c(C#N)c1)C(=O)N(C)O[C@@H](C(=O)N(C)CC(F)F)C3
- CLint scaled [1]: 14 mL/min/kg
- solubility thermodynamic [16]: 45 µM (≈ 23.4 µg/mL)

SMILES: CCCC(=O)c1n[nH]c2c1CN(C(=O)Nc1cccc(Cl)c1)CC2
- CLint scaled [1]: 214 mL/min/kg

SMILES: C[C@@H]1Cc2nn3c(c2CN1C(=O)Nc1ccc(F)c(C#N)c1)C(=O)N(C)OCC3
- CLint scaled [1]: < 5 mL/min/kg
- solubility thermodynamic [16]: 80 µM (≈ 31.9 µg/mL)

SMILES: C[C@H]1Cc2[nH]nc(-c3cscn3)c2CN1C(=O)Nc1ccc(F)c(C#N)c1
- solubility [18]: 45 µM (≈ 17.2 µg/mL)

SMILES: C[C@@H]1Cc2nn3c(c2CN1C(=O)Nc1ccc(F)c(C#N)c1)C(=O)N(C)O[C@@H](CF)C3
- CLint scaled [1]: < 5 mL/min/kg
- t1/2 ([2]; po, 5 mg/kg): 0.4 h
- CLH [3]: 11%
- Cmax [19]: 1420 ng/mL
- Activity (Cytochrome P450 [20]): Not Active
- Cmax [4]: 20.1 ng/mL
- fold change (FC) [21]: 2
- bioavailability [5]: 79%
- half-life [6]: 5.4 h
- Cmax [7]: 1310 ng/mL
- AUC(0-inf) [8]: 9550 ng·h/mL
- Tmax ([9]; po, 5 mg/kg): 0.5 h
- Vdss [10]: 1.5 L/kg
- bioavailability [11]: 7.4%
- AUC(0-inf) [12]: 71.8 ng·h/mL
- Vdss [22]: 6.3 L/kg
- inhibition (INH) (Cytochrome P450 [23]): Not Active
- bioavailability [24]: 66%
- Tmax [13]: 1 h
- Vdss [14]: 2.5 L/kg
- half-life [25]: 7.9 h
- solubility thermodynamic [16]: 63 µM (≈ 27.1 µg/mL)
- CLH [17]: 93%
- Tmax [26]: 0.4 h
- CLH [27]: 21%
- AUC(0-inf) [28]: 4340 ng·h/mL

SMILES: CN(OCCO)C(=O)c1n[nH]c2c1CN(C(=O)Nc1cccc(Cl)c1)CC2
- CLint scaled [1]: 31 mL/min/kg
- solubility thermodynamic [16]: 161 µM (≈ 63.4 µg/mL)

SMILES: O=C(Nc1cccc(Cl)c1)N1CCc2[nH]nc(C(=O)N3CCCCO3)c2C1
- CLint scaled [1]: 38 mL/min/kg

SMILES: CN1O[C@H](CO)Cn2nc3c(c2C1=O)CN(C(=O)Nc1ccc(F)c(Cl)c1)CC3
- CLint scaled [1]: 9 mL/min/kg

SMILES: C[C@@H]1Cc2nn3c(c2CN1C(=O)Nc1ccc(F)c(Cl)c1)C(=O)N(C)O[C@@H](CO)C3
- CLint scaled [1]: 11 mL/min/kg
- solubility thermodynamic [16]: 183 µM (≈ 80.1 µg/mL)

SMILES: Cc1cc(NC(=O)N2Cc3c(nn4c3C(=O)N(C)O[C@@H](CO)C4)C[C@H]2C)ccc1F
- CLint scaled [1]: < 5 mL/min/kg
- half-life [29]: 1.5 h
- Vd [30]: 2.1 L/kg
- half-life [31]: 0.7 h
- clearance [32]: 39 mL/min/kg
- clearance [33]: 47 mL/min/kg
- solubility thermodynamic [16]: > 200 µM
- Vd [34]: 2.2 L/kg

SMILES: CN1OC(CO)Cn2nc3c(c2C1=O)CN(C(=O)Nc1ccc(F)c(Cl)c1)CC3 (racemic)
- CLint scaled [1]: 8 mL/min/kg
- solubility thermodynamic [16]: 183 µM (≈ 77.6 µg/mL)

SMILES: C[C@@H]1Cc2nn3c(c2CN1C(=O)Nc1ccc(F)c(Cl)c1)C(=O)N(C)O[C@@H](CN(C)C)C3
- CLint scaled [1]: 19 mL/min/kg
- solubility thermodynamic [16]: 176 µM (≈ 81.8 µg/mL)

SMILES: CC(C)ON(C)C(=O)c1n[nH]c2c1CN(C(=O)Nc1cccc(Cl)c1)CC2
- CLint scaled [1]: 65 mL/min/kg

SMILES: C[C@@H]1Cc2nn3c(c2CN1C(=O)Nc1ccc(F)c(C(F)(F)F)c1)C(=O)N(C)O[C@@H](CO)C3
- CLint scaled [1]: 7.2 mL/min/kg
- half-life [29]: 1.6 h
- Vd [30]: 2.3 L/kg
- half-life [31]: 1.4 h
- clearance [32]: 58 mL/min/kg
- clearance [33]: 24 mL/min/kg
- solubility thermodynamic [16]: 172 µM (≈ 81.1 µg/mL)
- Vd [34]: 5.3 L/kg

SMILES: C[C@@H]1Cc2nn3c(c2CN1C(=O)Nc1ccc(F)c(C#N)c1)C(=O)N(C)O[C@@H](CO)C3
- CLint scaled [1]: < 5 mL/min/kg
- half-life [29]: 1.2 h
- Vd [30]: 1.9 L/kg
- half-life [31]: 0.5 h
- clearance [32]: 96 mL/min/kg
- clearance [33]: 66 mL/min/kg
- solubility thermodynamic [16]: > 200 µM
- Vd [34]: 4 L/kg

SMILES: CON(C)C(=O)c1n[nH]c2c1CN(C(=O)Nc1cccc(Cl)c1)CC2
- CLint scaled [1]: 33 mL/min/kg

SMILES: CN(OC1COC1)C(=O)c1n[nH]c2c1CN(C(=O)Nc1cccc(Cl)c1)CC2
- CLint scaled [1]: 8 mL/min/kg
- solubility thermodynamic [16]: 183 µM (≈ 74.3 µg/mL)

SMILES: CCN(C)C(=O)c1n[nH]c2c1CN(C(=O)Nc1cccc(Cl)c1)CC2
- CLint scaled [1]: 87 mL/min/kg
